Common to all, as to experiment: Biological Example 2 glasshouse assay for herbicidal activity
What all share (assay type): in vivo

In experiment [1] the test system is Alopecurus myosuroides (ALOMY). Particulars: post-emergence, 360 h, 14 or 15 DAA, 0.2% v/v X-77, read-out: percentage phytotoxicity ALOMY. The essentials:
(§1)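 Glasshouse pots sprayed pre-emergence (1 day after sowing) or post-emergence (~12 days) with active ingredient formulated as IF50 in water plus 0.2% v/v X-77; warm species 24/18 °C, cool species 20/16 °C, 16 h light, 65% humidity. Visual % phytotoxicity scored 14–15 DAA (post) or 20 DAA (pre).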

The test system of experiment [2] is Beta vulgaris (BEAVA, sugarbeet). Particulars: post-emergence, 360 h, 14 or 15 DAA, 0.2% v/v X-77, read-out: percentage phytotoxicity BEAVA. The essentials: as §1
The test system of experiment [3] is Brachiaria plantaginea (BRAPL). Particulars: Urochloa plantaginea, post-emergence, 360 h, 14 or 15 DAA, 0.2% v/v X-77, read-out: percentage phytotoxicity BRAPL. The essentials: as §1
In experiment [4] the test system is Brassica napus (BRSNN, rape). Particulars: post-emergence, 14 or 15 DAA, 0.2% v/v X-77. The essentials:
as §1

Experiment [5] deals with Digitaria sanguinalis (DIGSA). Particulars: post-emergence, 360 h, 14 or 15 DAA, 0.2% v/v X-77, read-out: percentage phytotoxicity DIGSA. In short, it runs like this:
as §1

Experiment [6] relates to Echinochloa crus-galli (ECHCG). Particulars: post-emergence, 14 or 15 DAA; for percentage phytotoxicity ECHCG: 0.2% v/v X-77. The essentials: as §1
In experiment [7] the test system is Glycine max (GLXMA, soybean). Particulars: post-emergence, 360 h, 14 or 15 DAA, 0.2% v/v X-77, read-out: percentage phytotoxicity GLXMA. In short, it runs like this:
as §1

In experiment [8] the test system is Lolium perenne (LOLPE). Particulars: post-emergence, 14 or 15 DAA. The essentials:
as §1

The test system of experiment [9] is SORVU (Sorghum bicolor (L.) Moench ssp. Bicolor, or Sorghum vulgare Pers.). Particulars: post-emergence, 360 h, 14 or 15 DAA, 0.2% v/v X-77, read-out: percentage phytotoxicity SORVU. The essentials: as §1
The subject of experiment [10] is Zea mays (ZEAMX, corn, maize, e.g. volunteer corn). Particulars: post-emergence, 14 or 15 DAA. In short, it runs like this:
as §1

[11] abbreviates: Brassica napus, 360 h, read-out: percentage phytotoxicity BRSNN.
[12] abbreviates: Brassica napus, 360 h, 250 g/ha, read-out: percentage phytotoxicity BRSNN.
Setting [13] is: Echinochloa crus-galli, 360 h, 30 g/ha, 0.2% v/v X-77, read-out: percentage phytotoxicity ECHCG.
Setting [14] is: Echinochloa crus-galli, 360 h, 250 g/ha, 0.2% v/v X-77, read-out: percentage phytotoxicity ECHCG.
Setting [15] is: Lolium perenne, 360 h, 0.2% v/v X-77, read-out: percentage phytotoxicity LOLPE.
Setting [16] is: Lolium perenne, 360 h, 250 g/ha, 0.2% v/v X-77, read-out: percentage phytotoxicity LOLPE.
[17] abbreviates: Zea mays, 360 h, 0.2% v/v X-77, read-out: percentage phytotoxicity ZEAMX.
[18] abbreviates: Zea mays, 360 h, 250 g/ha, 0.2% v/v X-77, read-out: percentage phytotoxicity ZEAMX.

In the case of `CC#Cc1cc(F)c(C2=C(OC(=O)OC(C)C)C3CCC(C3)C2=O)c(OC)c1` (centres unmarked) [Compound P3], the pest or weed control at 30 g/ha in experiment [1] came out at 70%; in experiment [3], 100%; in experiment [5] it was 100%; in experiment [6] (setting [13]) it was 100%; in experiment [8] (setting [15]) it was 90%; in [9] it was 100%. Further, in experiment [10] (setting [17]), the pest or weed control at 30 g/ha was found to be 100%. For the same compound, the pest or weed control at 250 g/ha was found to be 90% in experiment [1]; 100% in experiment [3]; 100% in experiment [5]; 100% in [6] (setting [14]); 100% in experiment [8] (setting [16]); 100% in experiment [9]. Besides, in experiment [10] (setting [18]), the pest or weed control at 250 g/ha turned out to be 100%. Besides, the figures for the plant injury at 30 g/ha in experiment [2], in [4] (setting [11]) and in experiment [7] were 0%, 10% and 0%, respectively. The plant injury at 250 g/ha in experiment [2] is 0%; in experiment [4] (setting [12]) it was 80%; in experiment [7] it was 0%.

Turning to `CC#Cc1cc(F)c(C2C(=O)C3CCC(C)(C2=O)C3(C)C)c(OC)c1` (centres unmarked) [Compound A2], the pest or weed control at 250 g/ha in experiment [1] came out at 60%; in experiment [5], 80%; in [6] (setting [14]), 90%; in [8] (setting [16]), 0%; in experiment [9] it was 90%; in [10] (setting [18]) it was 90%. For the same compound, the plant injury at 250 g/ha was 0% in [2], 10% in experiment [4] (setting [12]) and 20% in [7].

For the compound `CC#Cc1cc(F)c(C2C(=O)C3CCC(C3)C2=O)c(OC(F)F)c1` (centres unmarked) [Compound A7], the pest or weed control at 30 g/ha came out at 30% in experiment [1]; 90% in experiment [3]; 90% in experiment [5]; 90% in experiment [6] (setting [13]); 0% in experiment [8] (setting [15]); 50% in [9]. The pest or weed control at 30 g/ha in [10] (setting [17]) worked out at 80%. Moreover, the pest or weed control at 125 g/ha was 70% in [1] (125 g/ha); 100% in experiment [3] (125 g/ha); 100% in experiment [5] (125 g/ha); 100% in [6] (Echinochloa crus-galli, 360 h, 125 g/ha, 0.2% v/v X-77, read-out: percentage phytotoxicity ECHCG); 30% in experiment [8] (Lolium perenne, 360 h, 125 g/ha, 0.2% v/v X-77, read-out: percentage phytotoxicity LOLPE); 90% in [9] (125 g/ha). For the same compound, the pest or weed control at 125 g/ha in experiment [10] (Zea mays, 360 h, 125 g/ha, 0.2% v/v X-77, read-out: percentage phytotoxicity ZEAMX) was 90%. Also, the pest or weed control at 250 g/ha in experiment [1] worked out at 70%; in experiment [3], 100%; in experiment [5], 100%; in experiment [6] (setting [14]) it was 100%; in experiment [8] (setting [16]), 40%; in experiment [9], 100%. In addition, the pest or weed control at 250 g/ha in experiment [10] (setting [18]) is 100%. Also, the values for the plant injury at 30 g/ha in experiment [2], in [4] (setting [11]) and in experiment [7] were 0%, 30% and 20%, respectively. Also, the plant injury at 125 g/ha came out at 0% in experiment [2] (125 g/ha); 50% in experiment [4] (Brassica napus, 360 h, 125 g/ha, read-out: percentage phytotoxicity BRSNN); 20% in experiment [7] (125 g/ha). In addition, the values for the plant injury at 250 g/ha in [2], in experiment [4] (setting [12]) and in experiment [7] were 10%, 60% and 20%, respectively.

As for `CC#Cc1cc(F)c(C2=C(OC(=O)C(C)(C)C)C3CCC(C3)C2=O)c(OC)c1` (centres unmarked) [Compound P1], the pest or weed control at 30 g/ha in experiment [1] was found to be 80%; in experiment [3], 100%; in [5] it was 90%; in experiment [6] (setting [13]), 100%; in experiment [8] (setting [15]), 100%; in experiment [9], 100%. Moreover, in experiment [10] (setting [17]), the pest or weed control at 30 g/ha turned out to be 100%. Besides, the pest or weed control at 250 g/ha in experiment [1] worked out at 90%; in experiment [3], 90%; in [5], 100%; in experiment [6] (setting [14]), 100%; in experiment [8] (setting [16]) it was 100%; in experiment [9] it was 100%. In addition, the pest or weed control at 250 g/ha in [10] (setting [18]) is 100%. Further, the plant injury at 30 g/ha in experiment [2] is 0%; in experiment [4] (setting [11]), 10%; in [7], 0%. Further, the plant injury at 250 g/ha in experiment [2] turned out to be 0%; in [4] (setting [12]) it was 80%; in experiment [7] it was 20%.

As for `CC#Cc1cc(F)c(C2C(=O)C3CCC(C3)C2=O)c(OC)c1` (centres unmarked) [Compound A1, 3-(2-Fluoro-6-methoxy-4-prop-1-ynyl-phenyl)-bicyclo[3.2.1]octane-2,4-dione], the pest or weed control at 30 g/ha in experiment [1] is 80%; in experiment [3], 90%; in experiment [5], 100%; in experiment [6] (setting [13]), 100%; in experiment [8] (setting [15]), 90%; in experiment [9], 90%. Further, the pest or weed control at 30 g/ha in experiment [10] (setting [17]) stood at 90%. In addition, the pest or weed control at 250 g/ha in experiment [1], in [3], in [5], in experiment [6] (setting [14]), in [8] (setting [16]) and in experiment [9] was 100% each time. Further, in experiment [10] (setting [18]), the pest or weed control at 250 g/ha turned out to be 100%. Besides, the plant injury at 250 g/ha in [2] is 30%; in experiment [4] (setting [12]) it was 80%. In [4] (setting [11]), the plant injury at 30 g/ha was 40%. Moreover, the “percentage phytotoxicity BRSNN” value in [4] (250 g/ha) was 80%. Also, the “percentage phytotoxicity ECHCG” value in experiment [6] (30 g/ha) and in experiment [6] (250 g/ha) was 100% throughout. Also, the “percentage phytotoxicity LOLPE” value in experiment [8] (250 g/ha, 0.2% v/v X-77) worked out at 100%. The “percentage phytotoxicity ZEAMX” value in experiment [10] (250 g/ha, 0.2% v/v X-77) came out at 100%.
